The record followed here is ChEMBL document CHEMBL5442219.

What all share (conditions): Compound concentration 10 µM
Test [1] deals with Mu-type opioid receptor (Homo sapiens) (UniProt P35372).
Description: PDSP Primary Binding target: OPRM1 - Compounds are tested at 10 uM concentration, plate are incubated at room temperature in the dark for 90 minutes. Reaction are stopped by vacuum filtration onto 0.3% polyethyleneimine soaked filter mats using Filtermate harvester. Scintilation cocktail is then melted onto microwave-dried filters on a hot plate and the radio activity is counted in Microbia counter.
Test [2] has as its target Translocator protein (Homo sapiens) (UniProt P30536).
Description: PDSP Primary Binding target: TSPO - Compounds are tested at 10 uM concentration, plate are incubated at room temperature in the dark for 90 minutes. Reaction are stopped by vacuum filtration onto 0.3% polyethyleneimine soaked filter mats using Filtermate harvester. Scintilation cocktail is then melted onto microwave-dried filters on a hot plate and the radio activity is counted in Microbia counter.
For test [3], the target named is T1, Muscarinic acetylcholine receptor M1 (Homo sapiens) (UniProt P11229).
T1 sequence (whole entry): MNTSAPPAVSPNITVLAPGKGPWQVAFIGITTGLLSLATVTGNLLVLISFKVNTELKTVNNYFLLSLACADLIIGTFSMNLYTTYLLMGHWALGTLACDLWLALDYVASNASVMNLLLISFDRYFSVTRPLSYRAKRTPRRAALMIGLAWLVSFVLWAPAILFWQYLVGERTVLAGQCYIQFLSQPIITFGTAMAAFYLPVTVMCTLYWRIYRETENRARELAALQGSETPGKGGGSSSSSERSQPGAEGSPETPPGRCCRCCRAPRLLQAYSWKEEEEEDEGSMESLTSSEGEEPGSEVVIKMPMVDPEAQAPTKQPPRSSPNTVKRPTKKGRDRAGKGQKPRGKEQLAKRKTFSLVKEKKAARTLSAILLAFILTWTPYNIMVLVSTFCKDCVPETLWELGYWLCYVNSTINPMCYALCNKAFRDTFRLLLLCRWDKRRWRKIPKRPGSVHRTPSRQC
Description: PDSP Primary Binding target: CHRM1 - Compounds are tested at 10 uM concentration, plate are incubated at room temperature in the dark for 90 minutes. Reaction are stopped by vacuum filtration onto 0.3% polyethyleneimine soaked filter mats using Filtermate harvester. Scintilation cocktail is then melted onto microwave-dried filters on a hot plate and the radio activity is counted in Microbia counter.

For test [4], the target named is 5-hydroxytryptamine receptor 2B (Homo sapiens) (UniProt P41595).
Description: PDSP Primary Binding target: HTR2B - Compounds are tested at 10 uM concentration, plate are incubated at room temperature in the dark for 90 minutes. Reaction are stopped by vacuum filtration onto 0.3% polyethyleneimine soaked filter mats using Filtermate harvester. Scintilation cocktail is then melted onto microwave-dried filters on a hot plate and the radio activity is counted in Microbia counter.
Test [5] concerns the target Beta-2 adrenergic receptor (Homo sapiens) (UniProt P07550).
Description: PDSP Primary Binding target: ADRB2 - Compounds are tested at 10 uM concentration, plate are incubated at room temperature in the dark for 90 minutes. Reaction are stopped by vacuum filtration onto 0.3% polyethyleneimine soaked filter mats using Filtermate harvester. Scintilation cocktail is then melted onto microwave-dried filters on a hot plate and the radio activity is counted in Microbia counter.
In test [6] the target is 5-hydroxytryptamine receptor 1B (Homo sapiens) (UniProt P28222).
Description: PDSP Primary Binding target: HTR1B - Compounds are tested at 10 uM concentration, plate are incubated at room temperature in the dark for 90 minutes. Reaction are stopped by vacuum filtration onto 0.3% polyethyleneimine soaked filter mats using Filtermate harvester. Scintilation cocktail is then melted onto microwave-dried filters on a hot plate and the radio activity is counted in Microbia counter.
The target in test [7] is Sigma intracellular receptor 2 (Homo sapiens) (UniProt Q5BJF2).
Description: PDSP Primary Binding target: TMEM97 - Compounds are tested at 10 uM concentration, plate are incubated at room temperature in the dark for 90 minutes. Reaction are stopped by vacuum filtration onto 0.3% polyethyleneimine soaked filter mats using Filtermate harvester. Scintilation cocktail is then melted onto microwave-dried filters on a hot plate and the radio activity is counted in Microbia counter.
Test [8] has as its target T2, Muscarinic acetylcholine receptor M5 (Homo sapiens) (UniProt P08912).
T2 sequence (whole entry): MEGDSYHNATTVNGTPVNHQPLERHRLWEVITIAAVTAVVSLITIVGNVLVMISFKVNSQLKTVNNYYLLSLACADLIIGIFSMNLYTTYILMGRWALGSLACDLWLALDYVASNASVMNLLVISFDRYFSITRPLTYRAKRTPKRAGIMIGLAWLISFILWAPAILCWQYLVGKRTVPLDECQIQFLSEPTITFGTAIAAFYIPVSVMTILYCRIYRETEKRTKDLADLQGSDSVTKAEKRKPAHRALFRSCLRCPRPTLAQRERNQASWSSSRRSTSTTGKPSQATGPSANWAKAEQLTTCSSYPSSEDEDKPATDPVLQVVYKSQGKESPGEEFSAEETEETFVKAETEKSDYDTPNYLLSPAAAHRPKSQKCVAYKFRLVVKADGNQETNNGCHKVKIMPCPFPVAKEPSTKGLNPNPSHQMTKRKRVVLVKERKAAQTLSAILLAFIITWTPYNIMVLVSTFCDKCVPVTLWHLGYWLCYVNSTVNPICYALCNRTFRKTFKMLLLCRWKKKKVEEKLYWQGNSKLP
Description: PDSP Primary Binding target: CHRM5 - Compounds are tested at 10 uM concentration, plate are incubated at room temperature in the dark for 90 minutes. Reaction are stopped by vacuum filtration onto 0.3% polyethyleneimine soaked filter mats using Filtermate harvester. Scintilation cocktail is then melted onto microwave-dried filters on a hot plate and the radio activity is counted in Microbia counter.

Test [9] deals with D(1A) dopamine receptor (Homo sapiens) (UniProt P21728).
Description: PDSP Primary Binding target: DRD1 - Compounds are tested at 10 uM concentration, plate are incubated at room temperature in the dark for 90 minutes. Reaction are stopped by vacuum filtration onto 0.3% polyethyleneimine soaked filter mats using Filtermate harvester. Scintilation cocktail is then melted onto microwave-dried filters on a hot plate and the radio activity is counted in Microbia counter.
Test [10] addresses D(2) dopamine receptor (Homo sapiens) (UniProt P14416).
Description: PDSP Primary Binding target: DRD2 - Compounds are tested at 10 uM concentration, plate are incubated at room temperature in the dark for 90 minutes. Reaction are stopped by vacuum filtration onto 0.3% polyethyleneimine soaked filter mats using Filtermate harvester. Scintilation cocktail is then melted onto microwave-dried filters on a hot plate and the radio activity is counted in Microbia counter.
Test [11] concerns the target T3, 5-hydroxytryptamine receptor 2C (Homo sapiens) (UniProt P28335).
T3 sequence (whole entry): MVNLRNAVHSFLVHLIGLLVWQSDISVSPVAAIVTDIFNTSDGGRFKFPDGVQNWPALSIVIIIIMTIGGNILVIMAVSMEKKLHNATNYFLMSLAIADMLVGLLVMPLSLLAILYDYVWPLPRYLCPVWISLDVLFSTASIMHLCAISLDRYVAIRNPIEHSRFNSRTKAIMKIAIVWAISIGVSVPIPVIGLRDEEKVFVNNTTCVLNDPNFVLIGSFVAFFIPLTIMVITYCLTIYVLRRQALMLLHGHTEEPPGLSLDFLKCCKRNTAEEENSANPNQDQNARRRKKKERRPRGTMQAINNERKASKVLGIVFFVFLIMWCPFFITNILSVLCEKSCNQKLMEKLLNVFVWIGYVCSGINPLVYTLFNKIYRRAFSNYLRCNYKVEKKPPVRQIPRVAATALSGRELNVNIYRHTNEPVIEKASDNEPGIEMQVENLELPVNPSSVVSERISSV
Description: PDSP Primary Binding target: HTR2C - Compounds are tested at 10 uM concentration, plate are incubated at room temperature in the dark for 90 minutes. Reaction are stopped by vacuum filtration onto 0.3% polyethyleneimine soaked filter mats using Filtermate harvester. Scintilation cocktail is then melted onto microwave-dried filters on a hot plate and the radio activity is counted in Microbia counter.

For test [12], the target named is Sigma non-opioid intracellular receptor 1 (Homo sapiens) (UniProt Q99720).
Description: PDSP Primary Binding target: SIGMAR1 - Compounds are tested at 10 uM concentration, plate are incubated at room temperature in the dark for 90 minutes. Reaction are stopped by vacuum filtration onto 0.3% polyethyleneimine soaked filter mats using Filtermate harvester. Scintilation cocktail is then melted onto microwave-dried filters on a hot plate and the radio activity is counted in Microbia counter.
The target of test [13] is Beta-3 adrenergic receptor (Homo sapiens) (UniProt P13945).
Description: PDSP Primary Binding target: ADRB3 - Compounds are tested at 10 uM concentration, plate are incubated at room temperature in the dark for 90 minutes. Reaction are stopped by vacuum filtration onto 0.3% polyethyleneimine soaked filter mats using Filtermate harvester. Scintilation cocktail is then melted onto microwave-dried filters on a hot plate and the radio activity is counted in Microbia counter.
Test [14] has as its target Beta-1 adrenergic receptor (Homo sapiens) (UniProt P08588).
Description: PDSP Primary Binding target: ADRB1 - Compounds are tested at 10 uM concentration, plate are incubated at room temperature in the dark for 90 minutes. Reaction are stopped by vacuum filtration onto 0.3% polyethyleneimine soaked filter mats using Filtermate harvester. Scintilation cocktail is then melted onto microwave-dried filters on a hot plate and the radio activity is counted in Microbia counter.
The target of test [15] is T4, Alpha-2B adrenergic receptor (Homo sapiens) (UniProt P18089).
T4 sequence (whole entry): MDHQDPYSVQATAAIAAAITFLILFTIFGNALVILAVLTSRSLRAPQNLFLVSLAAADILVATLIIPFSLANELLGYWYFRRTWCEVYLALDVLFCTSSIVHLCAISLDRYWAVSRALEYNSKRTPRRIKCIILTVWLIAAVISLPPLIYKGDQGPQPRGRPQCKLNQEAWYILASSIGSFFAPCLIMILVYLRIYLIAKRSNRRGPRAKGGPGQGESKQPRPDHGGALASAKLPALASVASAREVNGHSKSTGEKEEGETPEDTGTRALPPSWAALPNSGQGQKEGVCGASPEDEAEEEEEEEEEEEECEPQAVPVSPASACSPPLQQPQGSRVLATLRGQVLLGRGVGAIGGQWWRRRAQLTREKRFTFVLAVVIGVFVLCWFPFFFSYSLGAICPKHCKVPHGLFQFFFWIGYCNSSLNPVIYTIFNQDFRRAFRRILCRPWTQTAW
Description: PDSP Primary Binding target: ADRA2B - Compounds are tested at 10 uM concentration, plate are incubated at room temperature in the dark for 90 minutes. Reaction are stopped by vacuum filtration onto 0.3% polyethyleneimine soaked filter mats using Filtermate harvester. Scintilation cocktail is then melted onto microwave-dried filters on a hot plate and the radio activity is counted in Microbia counter.

For test [16], the target named is D(1B) dopamine receptor (Homo sapiens) (UniProt P21918).
Description: PDSP Primary Binding target: DRD5 - Compounds are tested at 10 uM concentration, plate are incubated at room temperature in the dark for 90 minutes. Reaction are stopped by vacuum filtration onto 0.3% polyethyleneimine soaked filter mats using Filtermate harvester. Scintilation cocktail is then melted onto microwave-dried filters on a hot plate and the radio activity is counted in Microbia counter.
Test [17] addresses Histamine H2 receptor (Homo sapiens) (UniProt P25021).
Description: PDSP Primary Binding target: HRH2 - Compounds are tested at 10 uM concentration, plate are incubated at room temperature in the dark for 90 minutes. Reaction are stopped by vacuum filtration onto 0.3% polyethyleneimine soaked filter mats using Filtermate harvester. Scintilation cocktail is then melted onto microwave-dried filters on a hot plate and the radio activity is counted in Microbia counter.
Test [18] deals with Kappa-type opioid receptor (Homo sapiens) (UniProt P41145).
Description: PDSP Primary Binding target: OPRK1 - Compounds are tested at 10 uM concentration, plate are incubated at room temperature in the dark for 90 minutes. Reaction are stopped by vacuum filtration onto 0.3% polyethyleneimine soaked filter mats using Filtermate harvester. Scintilation cocktail is then melted onto microwave-dried filters on a hot plate and the radio activity is counted in Microbia counter.
The target in test [19] is 5-hydroxytryptamine receptor 1D (Homo sapiens) (UniProt P28221).
Description: PDSP Primary Binding target: HTR1D - Compounds are tested at 10 uM concentration, plate are incubated at room temperature in the dark for 90 minutes. Reaction are stopped by vacuum filtration onto 0.3% polyethyleneimine soaked filter mats using Filtermate harvester. Scintilation cocktail is then melted onto microwave-dried filters on a hot plate and the radio activity is counted in Microbia counter.
Test [20] deals with Sodium-dependent dopamine transporter (Homo sapiens) (UniProt Q01959).
Description: PDSP Primary Binding target: SLC6A3 - Compounds are tested at 10 uM concentration, plate are incubated at room temperature in the dark for 90 minutes. Reaction are stopped by vacuum filtration onto 0.3% polyethyleneimine soaked filter mats using Filtermate harvester. Scintilation cocktail is then melted onto microwave-dried filters on a hot plate and the radio activity is counted in Microbia counter.
The target in test [21] is 5-hydroxytryptamine receptor 2A (Homo sapiens) (UniProt P28223).
Chain of 5-hydroxytryptamine receptor 2A (Homo sapiens) (P28223 whole entry): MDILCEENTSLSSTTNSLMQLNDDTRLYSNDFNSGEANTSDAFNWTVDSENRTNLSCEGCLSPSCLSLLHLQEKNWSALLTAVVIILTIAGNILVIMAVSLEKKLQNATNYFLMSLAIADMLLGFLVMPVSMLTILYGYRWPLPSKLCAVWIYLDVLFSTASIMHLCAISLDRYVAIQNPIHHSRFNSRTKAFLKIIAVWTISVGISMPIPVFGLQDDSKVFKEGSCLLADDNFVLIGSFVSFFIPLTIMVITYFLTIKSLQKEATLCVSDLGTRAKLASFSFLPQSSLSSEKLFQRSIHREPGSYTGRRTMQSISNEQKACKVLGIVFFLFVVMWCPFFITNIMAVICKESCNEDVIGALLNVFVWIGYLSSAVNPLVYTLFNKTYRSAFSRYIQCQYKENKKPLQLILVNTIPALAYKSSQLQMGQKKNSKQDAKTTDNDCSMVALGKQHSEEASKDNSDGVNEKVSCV
Description: PDSP Primary Binding target: HTR2A - Compounds are tested at 10 uM concentration, plate are incubated at room temperature in the dark for 90 minutes. Reaction are stopped by vacuum filtration onto 0.3% polyethyleneimine soaked filter mats using Filtermate harvester. Scintilation cocktail is then melted onto microwave-dried filters on a hot plate and the radio activity is counted in Microbia counter.

Chain of Histamine H2 receptor (Homo sapiens) (P25021 whole entry): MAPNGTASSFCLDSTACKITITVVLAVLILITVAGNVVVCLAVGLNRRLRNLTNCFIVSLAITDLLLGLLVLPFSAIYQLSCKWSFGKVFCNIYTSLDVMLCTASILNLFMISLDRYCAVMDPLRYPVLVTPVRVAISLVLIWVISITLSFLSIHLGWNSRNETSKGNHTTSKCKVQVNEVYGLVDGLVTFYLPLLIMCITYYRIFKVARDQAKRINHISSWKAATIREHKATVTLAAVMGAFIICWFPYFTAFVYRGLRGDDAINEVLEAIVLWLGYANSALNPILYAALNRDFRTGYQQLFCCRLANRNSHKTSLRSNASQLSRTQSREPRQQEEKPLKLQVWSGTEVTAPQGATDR
Chain of Sigma intracellular receptor 2 (Homo sapiens) (Q5BJF2 whole entry): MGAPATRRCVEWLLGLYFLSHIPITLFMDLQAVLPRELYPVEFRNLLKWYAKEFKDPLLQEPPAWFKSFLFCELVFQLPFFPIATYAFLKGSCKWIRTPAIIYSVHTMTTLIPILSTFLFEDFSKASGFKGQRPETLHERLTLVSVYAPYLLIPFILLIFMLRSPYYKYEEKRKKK
Chain of Beta-3 adrenergic receptor (Homo sapiens) (P13945 whole entry, looked up): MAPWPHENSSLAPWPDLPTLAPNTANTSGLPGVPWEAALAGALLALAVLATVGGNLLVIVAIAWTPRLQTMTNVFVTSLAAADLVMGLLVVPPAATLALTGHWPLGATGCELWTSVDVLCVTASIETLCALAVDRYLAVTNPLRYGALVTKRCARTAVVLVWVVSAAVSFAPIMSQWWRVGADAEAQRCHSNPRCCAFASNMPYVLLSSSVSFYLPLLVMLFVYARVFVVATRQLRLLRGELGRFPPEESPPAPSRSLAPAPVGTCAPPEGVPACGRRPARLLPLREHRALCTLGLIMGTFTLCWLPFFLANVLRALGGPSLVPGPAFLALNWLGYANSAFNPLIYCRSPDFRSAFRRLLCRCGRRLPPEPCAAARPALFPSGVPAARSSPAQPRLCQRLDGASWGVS
Chain of D(1A) dopamine receptor (Homo sapiens) (P21728 whole entry): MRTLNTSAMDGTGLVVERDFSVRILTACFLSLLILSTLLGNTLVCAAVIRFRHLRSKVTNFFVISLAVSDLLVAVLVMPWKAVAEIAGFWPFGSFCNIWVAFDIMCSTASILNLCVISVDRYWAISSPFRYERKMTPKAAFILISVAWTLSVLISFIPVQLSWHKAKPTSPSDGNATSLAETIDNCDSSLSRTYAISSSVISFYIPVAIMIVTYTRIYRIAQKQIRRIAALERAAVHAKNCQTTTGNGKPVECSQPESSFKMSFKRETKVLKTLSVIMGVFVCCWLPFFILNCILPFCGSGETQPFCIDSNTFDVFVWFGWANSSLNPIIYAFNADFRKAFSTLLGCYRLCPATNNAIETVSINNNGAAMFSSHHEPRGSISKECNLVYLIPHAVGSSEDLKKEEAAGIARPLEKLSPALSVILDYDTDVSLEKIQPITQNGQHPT
Chain of Sodium-dependent dopamine transporter (Homo sapiens) (Q01959 whole entry): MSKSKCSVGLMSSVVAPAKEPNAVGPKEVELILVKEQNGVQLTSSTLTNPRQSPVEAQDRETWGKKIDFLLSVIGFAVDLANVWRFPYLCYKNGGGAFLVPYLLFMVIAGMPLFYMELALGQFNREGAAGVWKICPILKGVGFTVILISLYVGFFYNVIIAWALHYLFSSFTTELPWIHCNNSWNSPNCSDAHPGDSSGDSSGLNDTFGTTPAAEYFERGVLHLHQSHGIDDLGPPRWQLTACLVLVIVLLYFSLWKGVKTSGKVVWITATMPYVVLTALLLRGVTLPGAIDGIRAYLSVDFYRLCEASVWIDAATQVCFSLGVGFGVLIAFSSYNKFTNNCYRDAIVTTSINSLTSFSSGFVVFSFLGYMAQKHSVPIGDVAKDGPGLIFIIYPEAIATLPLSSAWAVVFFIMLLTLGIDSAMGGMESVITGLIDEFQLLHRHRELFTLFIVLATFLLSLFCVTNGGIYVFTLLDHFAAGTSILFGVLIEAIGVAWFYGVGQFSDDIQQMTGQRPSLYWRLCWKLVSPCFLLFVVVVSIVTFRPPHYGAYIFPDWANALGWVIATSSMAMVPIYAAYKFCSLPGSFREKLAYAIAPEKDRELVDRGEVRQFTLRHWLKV
Chain of 5-hydroxytryptamine receptor 2B (Homo sapiens) (P41595 whole entry): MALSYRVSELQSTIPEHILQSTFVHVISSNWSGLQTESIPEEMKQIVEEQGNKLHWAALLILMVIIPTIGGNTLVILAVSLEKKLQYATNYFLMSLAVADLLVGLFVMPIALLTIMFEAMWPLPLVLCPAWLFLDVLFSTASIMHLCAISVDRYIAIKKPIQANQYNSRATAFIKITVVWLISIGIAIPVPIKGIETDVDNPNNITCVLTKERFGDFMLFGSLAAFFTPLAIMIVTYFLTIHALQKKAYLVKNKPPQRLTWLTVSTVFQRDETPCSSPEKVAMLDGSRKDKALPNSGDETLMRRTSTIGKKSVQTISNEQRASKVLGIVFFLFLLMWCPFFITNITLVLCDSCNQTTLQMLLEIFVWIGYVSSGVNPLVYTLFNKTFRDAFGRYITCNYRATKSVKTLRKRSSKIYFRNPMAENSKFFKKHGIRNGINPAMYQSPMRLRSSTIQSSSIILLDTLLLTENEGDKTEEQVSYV
Chain of 5-hydroxytryptamine receptor 1D (Homo sapiens) (P28221 whole entry): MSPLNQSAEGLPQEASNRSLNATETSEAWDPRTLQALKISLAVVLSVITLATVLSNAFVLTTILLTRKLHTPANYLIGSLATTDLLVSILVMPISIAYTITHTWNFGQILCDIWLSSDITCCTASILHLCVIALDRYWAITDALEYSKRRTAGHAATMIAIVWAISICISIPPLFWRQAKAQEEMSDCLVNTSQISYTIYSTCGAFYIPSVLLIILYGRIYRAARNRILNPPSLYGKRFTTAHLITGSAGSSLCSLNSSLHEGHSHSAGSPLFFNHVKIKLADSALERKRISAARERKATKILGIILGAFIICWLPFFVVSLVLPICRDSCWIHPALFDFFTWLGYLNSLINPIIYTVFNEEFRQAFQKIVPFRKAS
Chain of 5-hydroxytryptamine receptor 1B (Homo sapiens) (P28222 whole entry): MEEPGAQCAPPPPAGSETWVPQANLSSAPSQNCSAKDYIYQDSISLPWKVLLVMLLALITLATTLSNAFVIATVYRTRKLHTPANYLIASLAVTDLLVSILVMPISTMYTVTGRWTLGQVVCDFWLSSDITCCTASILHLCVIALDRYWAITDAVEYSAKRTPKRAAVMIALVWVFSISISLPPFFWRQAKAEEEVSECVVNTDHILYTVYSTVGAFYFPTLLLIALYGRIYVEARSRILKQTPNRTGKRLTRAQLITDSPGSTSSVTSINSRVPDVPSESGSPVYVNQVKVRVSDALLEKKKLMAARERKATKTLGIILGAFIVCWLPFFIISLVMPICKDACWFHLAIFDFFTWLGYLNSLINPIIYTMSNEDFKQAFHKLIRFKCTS
Chain of Beta-1 adrenergic receptor (Homo sapiens) (P08588 whole entry, looked up): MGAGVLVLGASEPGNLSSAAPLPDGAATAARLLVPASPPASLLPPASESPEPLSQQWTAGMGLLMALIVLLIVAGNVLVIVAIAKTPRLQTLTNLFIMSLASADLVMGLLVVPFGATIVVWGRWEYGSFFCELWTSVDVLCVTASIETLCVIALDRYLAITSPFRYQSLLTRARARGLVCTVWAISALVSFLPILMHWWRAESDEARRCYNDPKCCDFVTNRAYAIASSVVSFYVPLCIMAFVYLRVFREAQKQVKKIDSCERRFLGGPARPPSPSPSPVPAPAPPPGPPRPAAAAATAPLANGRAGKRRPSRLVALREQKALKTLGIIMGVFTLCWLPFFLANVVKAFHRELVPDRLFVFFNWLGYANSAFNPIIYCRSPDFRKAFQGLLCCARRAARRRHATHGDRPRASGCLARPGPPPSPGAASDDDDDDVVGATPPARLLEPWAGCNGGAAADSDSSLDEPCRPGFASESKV
Chain of D(1B) dopamine receptor (Homo sapiens) (P21918 whole entry): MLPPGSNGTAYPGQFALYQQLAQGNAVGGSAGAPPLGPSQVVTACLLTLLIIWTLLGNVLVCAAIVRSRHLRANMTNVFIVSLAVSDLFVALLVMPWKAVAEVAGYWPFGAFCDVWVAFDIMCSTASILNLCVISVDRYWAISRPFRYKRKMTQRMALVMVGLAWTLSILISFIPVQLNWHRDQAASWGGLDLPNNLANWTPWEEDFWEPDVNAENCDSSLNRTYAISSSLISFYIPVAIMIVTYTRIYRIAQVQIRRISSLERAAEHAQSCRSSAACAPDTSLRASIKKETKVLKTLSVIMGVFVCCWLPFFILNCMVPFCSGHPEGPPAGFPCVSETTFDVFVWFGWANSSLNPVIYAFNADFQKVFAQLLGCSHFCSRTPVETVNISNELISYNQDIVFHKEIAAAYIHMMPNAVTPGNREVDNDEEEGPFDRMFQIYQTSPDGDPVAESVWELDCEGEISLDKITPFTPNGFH
Chain of Translocator protein (Homo sapiens) (P30536 whole entry): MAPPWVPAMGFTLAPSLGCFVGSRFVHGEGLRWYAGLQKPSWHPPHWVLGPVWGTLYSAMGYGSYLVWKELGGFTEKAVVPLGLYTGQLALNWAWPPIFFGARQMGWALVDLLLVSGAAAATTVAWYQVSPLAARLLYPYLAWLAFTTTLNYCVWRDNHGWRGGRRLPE

For the compound `COc1ccc(NS(=O)(=O)c2sc3ccc(Cl)cc3c2C)cc1N1CCNCC1`, the inhibition in test [1] is 56.3%; in test [2], 39.5%; in test [3], -7.39%; in test [4] it was 71.2%; in test [5], 32.3%; in test [6], 48.8%. The inhibition is 81.8% in [7]; 16.8% in test [8]; 16.9% in test [9]; 37.4% in test [10]; 51.7% in [11]; 83.6% in [12]. For the same compound, the inhibition in [13] was 56.5%; in test [14] it was 50.6%; in test [15], 35.1%; in [16], 22.4%; in [17], 13.5%; in test [18], 75.5%. Moreover, the inhibition in test [19] is 66.8%; in [20], 63.1%; in test [21] it was 37.4%.

Take `CN1C2CCC1CC(OC(c1ccc(F)cc1)c1ccc(F)cc1)C2` (configuration not stated): the inhibition in test [1] is 59.1%; in test [2] it was 47.8%; in [3] it was 94.5%; in test [4], 102%; in [5], -6.19%; in test [6] it was 27.7%. Further, the inhibition in test [7] is 100%; in test [8], 94.5%; in [9], 83%; in test [10], 67.8%; in test [11] it was 92.9%; in test [12], 93.6%. The inhibition in test [13] is 36%; in test [14], 33%; in [16], 66.6%; in test [17], 86.9%; in [18], 65.7%; in test [19], 74%. The results for the inhibition in test [20] and in test [21] were 96.9% and 99.6%, respectively.

As to `CCc1ccc(OCc2ccccc2C(=O)Nc2ccc3nc(C)cc(N)c3c2)cc1`, the inhibition in test [1] is 81.7%; in [2], 54.7%; in test [3], 74.4%; in test [4], 74.8%; in test [5], 8.05%; in [6] it was 46.6%. The inhibition in test [7] is 91.7%; in [8], 24%; in test [9], 47.8%; in test [10], 36.2%; in test [11], 91.2%; in test [12], 58.1%. The inhibition was 68.6% in [13]; 3.07% in test [14]; 55.2% in test [15]; 39.1% in [16]; 46.7% in test [17]; 72% in test [18]. Also, the values for the inhibition in test [19], in [20] and in test [21] were 59.3%, 68.4% and 83.4%, respectively.

On to `CCCSc1nc(N[C@@H]2C[C@H]2c2ccc(F)c(F)c2)c2nnn([C@@H]3C[C@H](OCCO)[C@@H](O)[C@H]3O)c2n1`, for which the inhibition in test [1] is -2.99%; in test [2], 46%; in test [3], 18.3%; in test [4], 33.3%; in [5] it was 5.05%; in [6], 19.3%. Also, the inhibition in [7] is 63.6%; in [8], 10.8%; in test [9], 24%; in [10] it was 29%; in [11] it was -3.61%; in test [12], 35.4%. The inhibition was 49.7% in test [13]; 4.3% in test [14]; 41.2% in test [15]; 2.95% in test [16]; 3.94% in test [17]; 27.5% in test [18]. The inhibition in test [19] was 48.6%; in test [20], 75.8%; in [21], 10.9%.

As to `CCCCN(CCCC)C(=O)CN1C[C@@H](c2ccc3c(c2)OCO3)[C@H](C(=O)O)[C@H]1c1ccc(OC)cc1`, the inhibition in [1] is 0.92%; in test [2] it was 84.7%; in test [3], -7.47%; in test [4], -9.25%; in [6], -0.63%; in test [7] it was -0.23%. In addition, the inhibition in test [8] was 30.2%; in [9], -3.74%; in test [10], 21.1%; in test [12], 59.9%; in test [13] it was -9.03%; in test [14], -6.31%. In addition, the inhibition is 2.24% in [15]; 31% in test [17]; 27.6% in test [18]; -9.55% in [19]; 25.8% in test [20]; 13.8% in test [21].

In the case of `Clc1cccc(COc2cncc(N3CCNCC3)n2)c1`, the inhibition was 0.78% in test [1]; 36.1% in test [2]; 82% in [3]; 99.5% in test [4]; 32.6% in test [5]; 89% in test [6]. Also, the inhibition in test [7] was 86.4%; in test [8] it was 85.1%; in [9] it was 29.3%; in test [10], 3.43%; in test [11], 94.9%; in test [12] it was 96%. Also, the inhibition is 28.7% in test [13]; 50.8% in test [14]; 36.1% in test [15]; 11.8% in test [16]; 14.4% in test [17]; 28.3% in [18]. In addition, the inhibition in test [19] is 89.1%; in test [20] it was 33.5%; in test [21], 99%.

One may read the inhibition as the drop in the measured response relative to a control, in per cent.
